# Reference: US20260055060A1, “USE OF (ISOINDOLIN-2-YL)(4-HYDROXY-3-(ISOINDOLINE-2-CARBONYL)PHENYL)METHANONES IN THE TREATMENT OF TUMOR NECROSIS FACTOR RECEPTOR-ASSOCIATED PROTEIN 1 DYSFUNCTION” (UNIVERSITY OF NOTRE DAME DU LAC, priority 2022, published 2026)
# “Also recorded” adds a separate entry of the source.
# Experiments:
# [1] = test system: TRAP1-dependent client proteins NDUFS1, glutaminase-1, and Sirt3; assay: Western blot for degradation of TRAP1 client proteins; format: cell-based; conditions: for degradation of TRAP1-dependent client proteins NDUFS1, glutaminase-1, Sirt3: HeLa and 22Rv1 cells, 6 h treatment
# [2] = test system: cytosolic Hsp90 clients, Akt and Cdk4, Hsp70; assay: Western blot for cytosolic Hsp90 clients and Hsp70 induction; format: cell-based; conditions: HeLa and 22Rv1 cells, 6 h treatment
# HeLa cells [3] = assay: Seahorse XFe oxygen consumption rate, HeLa; format: cell-based; conditions: 6 h treatment, significant at 25 μM and 50 μM
# 22RV1 cells [4] = assay: Seahorse XFe oxygen consumption rate, 22Rv1; format: cell-based; conditions: 6 h treatment, significant at 25 μM and 50 μM
# HeLa cells [5] = assay: TMRM staining for mitochondrial membrane potential; format: cell-based; conditions: 6 h treatment, 25 μM and 50 μM
# HeLa cells [6] = assay: Seahorse mitochondrial function (oligomycin, FCCP, rot/AA injections), HeLa; format: cell-based; conditions: 6 hr pretreatment
# 22RV1 cells [7] = assay: Seahorse mitochondrial function (oligomycin, FCCP, rot/AA injections), 22Rv1; format: cell-based; conditions: 6 hr pretreatment
# HeLa cells [8] = assay: Cellular ATP production rate (glycolysis vs mitochondrial); format: cell-based; conditions: oligomycin and rot/AA injections
# [9] = test system: TRAP1-dependent client proteins NDUFS1, glutaminase-1, and Sirt3; conditions: literature report; cited from earlier work
# HeLa cells [10] = assay: Mitochondrial fuel oxidation with BPTES, UK5099 and etomoxir; format: cell-based
# Hsp90β = target: T1, Hsp90β (Homo sapiens, UniProt P08238); assay: Fluorescence polarization assay (FITC-GDA tracer displacement), Hsp90β; format: binding; conditions: Table 1; concentration at which tracer 50% displaced, reported as Kd
# T1 construct: 50 μL of assay buffer containing 10 nM of Hsp90, Hsp90a, Grp94, or Trap1 were added to each well
# T1 sequence (P08238 whole entry): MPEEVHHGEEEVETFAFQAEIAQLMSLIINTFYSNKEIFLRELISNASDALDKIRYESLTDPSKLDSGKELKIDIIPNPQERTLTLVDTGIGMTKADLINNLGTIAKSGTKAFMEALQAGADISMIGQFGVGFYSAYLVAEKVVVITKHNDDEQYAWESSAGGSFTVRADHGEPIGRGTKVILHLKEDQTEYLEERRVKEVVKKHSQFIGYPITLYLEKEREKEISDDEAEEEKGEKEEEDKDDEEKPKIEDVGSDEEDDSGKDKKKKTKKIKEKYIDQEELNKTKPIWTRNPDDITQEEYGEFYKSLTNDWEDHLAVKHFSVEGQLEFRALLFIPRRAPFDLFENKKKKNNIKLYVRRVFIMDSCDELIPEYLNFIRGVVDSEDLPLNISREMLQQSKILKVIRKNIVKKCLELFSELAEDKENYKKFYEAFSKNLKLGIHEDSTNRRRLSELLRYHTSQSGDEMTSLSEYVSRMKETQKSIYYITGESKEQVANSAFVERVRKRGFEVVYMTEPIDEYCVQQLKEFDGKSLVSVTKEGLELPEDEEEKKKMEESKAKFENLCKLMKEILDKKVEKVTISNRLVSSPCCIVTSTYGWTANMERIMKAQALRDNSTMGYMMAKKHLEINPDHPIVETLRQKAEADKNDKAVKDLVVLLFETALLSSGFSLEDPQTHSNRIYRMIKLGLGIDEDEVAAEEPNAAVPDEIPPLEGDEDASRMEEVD
Compound,"degradation of TRAP1-dependent client proteins NDUFS1, glutaminase-1, Sirt3 [1]","degradation of cytosolic Hsp90 clients Akt and Cdk4, induction of Hsp70 [2]",oxygen consumption rate / OXPHOS (HeLa cells [3]),oxygen consumption rate / OXPHOS (22RV1 cells [4]),TMRM fluorescence / mitochondrial membrane potential (HeLa cells [5]),"proton leak, maximal respiration, non-mitochondrial O2 consumption, spare respiratory capacity (HeLa cells [6])","proton leak, maximal respiration, non-mitochondrial O2 consumption, spare respiratory capacity (22RV1 cells [7])",cellular ATP production via oxidative phosphorylation or glycolysis (HeLa cells [8]),"degradation of TRAP1 client proteins (reported by Yoon, N. G. et al.) [9]","expression of TRAP1 clients NDUFS1, glutaminase-1, Sirt3 ([1]; HeLa cells, 2 hr treatment, up to 50 μM)","mitochondrial glutamine, fatty acid, and glucose oxidation (HeLa cells [10]; 6 hr treatment, 32 at 50 μM)","response of basal OCR to BPTES, UK5099, etomoxir (HeLa cells [10]; HeLa cells, 2 hr incubation, 50 μM)",Kd (Hsp90β) [nM]
"COc1cccc2c1CN(C(=O)c1ccc(O)c(C(=O)N3Cc4ccc(OCCC[P+](c5ccccc5)(c5ccccc5)c5ccccc5)cc4C3)c1)C2 [Compound 36, (3-((2-(2-Hydroxy-5-(4-methoxyisoindoline-2-carbonyl)benzoyl)isoindolin-5-yl)oxy)propyl)triphenylphosphonium hexafluorophosphate(V)]",dose-dependent and selective degradation,without inducing the degradation,statistically significant reduction of oxygen consumption; also recorded: significant dose-dependent decrease in OXPHOS; also recorded: inhibit OXPHOS,significant dose-dependent decrease in OXPHOS; also recorded: statistically significant reduction of oxygen consumption; also recorded: inhibit OXPHOS,marked decrease in TMRM fluorescence; also recorded: disrupt the mitochondrial membrane potential,decreased,decreased,alter cellular metabolism towards glycolysis,–,–,–,–,–
"COC1=C(OC)C(=O)C(CCCCCCCCCC[P+](c2ccccc2)(c2ccccc2)c2ccccc2)=C(C)C1=O [MitoQ, reference compound]",–,–,–,–,marked decrease in TMRM fluorescence,decreased,decreased,–,induce the degradation of these clients,–,–,–,–
gamitrinib [reference compound],–,pan-Hsp90 inhibition,–,–,marked decrease in TMRM fluorescence,decreased,decreased,–,–,–,–,–,–
"O=C(c1ccc(O)c(C(=O)N2Cc3ccc(OCCC[P+](c4ccccc4)(c4ccccc4)c4ccccc4)cc3C2)c1)N1Cc2cccc(F)c2C1 [Compound 35, (3-((2-(5-(4-Fluoroisoindoline-2-carbonyl)-2-hydroxybenzoyl)isoindolin-5-yl)oxy)propyl)triphenylphosphonium hexafluorophosphate(V)]",dose-dependent and selective degradation,without inducing the degradation,statistically significant reduction of oxygen consumption; also recorded: significant dose-dependent decrease in OXPHOS; also recorded: inhibit OXPHOS,significant dose-dependent decrease in OXPHOS; also recorded: statistically significant reduction of oxygen consumption; also recorded: inhibit OXPHOS,marked decrease in TMRM fluorescence; also recorded: disrupt the mitochondrial membrane potential,decreased,decreased,alter cellular metabolism towards glycolysis,–,dose-dependently decreased,reduced OCR (oxygen consumption rate) and prevented measurement,"unresponsive to BPTES, UK5099, and etomoxir",–
O=C(c1cc(C(=O)N2Cc3ccccc3C2)c(O)cc1O)N1Cc2ccccc2C1 [Compound 4],–,–,–,–,–,–,–,–,–,–,–,–,1000 ± 50
